Data as given in patent US8198279B2, “Pyrido[2,3-b]pyrazin-8-substituted compounds and their use” (Institute of Cancer Research: Royal Cancer Hospital (The), priority 2007, dated 2012).

Experiments:
B-RAF = target: T1, B-RAF (Homo sapiens, UniProt P15056, V600E); test: DELFIA Kinase Assay; assay type: biochemical; details: 100 μM ATP, GST-MEK substrate
T1 construct: made in house
Summary of the method: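 Recombinant B-RAF (V600E) with GST-MEK substrate was preincubated with compound for 10 min at room temperature, then reacted with 100 μM ATP for 45 min on milk-preblocked wells, with antibody detection by DELFIA europium fluorescence. Response is taken as % of DMSO control after empty-vector blank subtraction; IC50 is from a variable-slope sigmoidal fit, mean of usually three independent runs.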

pERK = test: Cell Based Phospho-ERK Assay; details: 6 h, 6 hours incubation with test compound
Experimental: Biological Methods—Cell Based Phosho-ERK Assay
Compounds were assessed using a cell-based assay which was performed according to the following protocol.
Plate out 16,000 cells/well in 99 μL medium in a 96-well plate.
• 1. Add 1 μL inhibitor to the cells (total […] solution). • 2. Incubate the cells with test compound for 6 hours at 37° C. • 3. Aspirate off the solution from all of the wells. • 4. Fixate the cells with 100 μL 4% formaldehyde/0.25% Triton X-100 PBS per well. • 5. Incubate the plate for 1 hour at 4° C. • 6. Aspirate off the fixing solution and add 300 μL TBS per well. • 7. Leave the plate overnight at 4° C. Day 2: • 1. Wash the plate 2× with 200 μL PBS per well. • 2. Block with 100 μL 5% dried milk in TBS. • 3. Incubate the plate for 20 minutes at 37° C. • 4. Wash the plate 2× with 0.1% tween/H2O. • 5. Add 50 μL of 3 μg/mL primary antibody pERK (Sigma M8159), diluted in 5% milk powder/TBS, to each well. • 6. Incubate the plate for 2 hours at 37° C. • 7. Wash the plate 3× with 0.1% tween/H2O. • 8. Add 50 μL of 0.45 μg/mL secondary Europium-labelled anti-mouse antibody (Perkin Elmer) to each well. • 9. Incubate the plate for 1 hour at 37° C. • 10. Wash the plate 3× with 0.1% tween/H2O. • 11. Add 100 μL enhancement solution (Perkin Elmer) to each well. • 12. Leave the plate for approximately 10 minutes at room temperature before gently shaking the plate. • 13. Read Europium Time Resolved Fluorescence in Victor2. • 14. Wash the plate 2× with 0.1% tween/H2O. • 15. Measure the protein concentration with BCA (Sigma) by adding 200 μL of solution per well. • 16. Incubate the plate for 30 minutes at 37° C. • 17. Read absorbance levels at 570 nm in a plate reader.
Note that Europium counts are normalised for protein levels by dividing counts by absorbance.
Values for the blank (no cells) are subtracted from all values. The DMSO controls are set as 100% activity and assay points (the response) are calculated as a percentage of the DMSO control. Data are plotted using Graphpad Prism software and a non-linear regression line is calculated using a variable slope sigmoidal dose-response equation (Y=Bottom+(Top−Bottom)/(1+10^((LogEC50−X)*HillSlope)) where X is the logarithm of concentration. Y is the response). The IC50 generated by this procedure is the concentration of the drug that produces a percentage control fluorescence value midway between the saturation, and zero-effect plateaus. Three independent assays are usually performed and the mean IC50 is reported.

WM266.4 melanoma cells = test: SRB Cell Proliferation Assay (SRB GI50); assay type: cell-based; details: Homo sapiens, WM 266-4, 144 h, 6 days growth
Summary of the method: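 WM266.4 cells (1000/well) grown 6 days with compound at 100 μM to 0.005 μM (3-fold dilutions) in DMEM/10% FBS at 37 °C. Cells TCA-fixed, sulphorhodamine-B stained, A540 read. GI50 is the concentration giving A540, as % of untreated control, midway between the plateaus.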

T1 sequence (P15056 whole entry V600E): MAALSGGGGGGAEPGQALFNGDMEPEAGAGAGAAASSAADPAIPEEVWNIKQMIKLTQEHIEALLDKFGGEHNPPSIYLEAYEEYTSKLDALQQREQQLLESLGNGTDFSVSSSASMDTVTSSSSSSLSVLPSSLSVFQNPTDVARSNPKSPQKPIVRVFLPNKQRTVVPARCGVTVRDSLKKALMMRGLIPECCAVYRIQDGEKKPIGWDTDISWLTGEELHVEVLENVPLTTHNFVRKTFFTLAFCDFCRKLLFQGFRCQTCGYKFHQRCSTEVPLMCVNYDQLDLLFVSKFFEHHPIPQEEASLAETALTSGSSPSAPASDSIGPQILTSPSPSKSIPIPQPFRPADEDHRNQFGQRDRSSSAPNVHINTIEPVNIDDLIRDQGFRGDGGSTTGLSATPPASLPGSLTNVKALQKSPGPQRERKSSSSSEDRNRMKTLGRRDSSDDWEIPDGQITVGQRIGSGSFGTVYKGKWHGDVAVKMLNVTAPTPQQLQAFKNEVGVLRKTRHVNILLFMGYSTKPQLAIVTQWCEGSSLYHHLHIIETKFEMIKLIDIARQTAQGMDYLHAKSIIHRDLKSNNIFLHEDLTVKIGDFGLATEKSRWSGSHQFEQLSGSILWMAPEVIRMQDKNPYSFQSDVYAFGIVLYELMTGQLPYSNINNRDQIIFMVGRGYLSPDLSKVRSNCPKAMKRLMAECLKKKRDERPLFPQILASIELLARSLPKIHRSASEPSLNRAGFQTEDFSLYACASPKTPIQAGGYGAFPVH

Row | Compound | IC50 (B-RAF) | IC50 (pERK) | GI50 (WM266.4 melanoma cells)
1 | O=C(Nc1ccc(Oc2ccnc3[nH]c(=O)cnc23)c(F)c1)Nc1cc(C(F)(F)F)ccc1F [AA-086, 1-(3-fluoro-4-(3-oxo-3,4-dihydropyrido[2,3-b]pyrazin-8-yloxy)phenyl)-3-(2-fluoro-5-(trifluoromethyl)phenyl)urea] | < 0.1 µM | 1 to 10 µM | 1 to 10 µM
2 | O=C(Nc1ccc(Oc2ccnc3[nH]c(=O)cnc23)cc1F)Nc1cc(C(F)(F)F)ccc1Oc1cccnc1 [AA-093, 1-(2-fluoro-4-(3-oxo-3,4-dihydropyrido[3,2-b]pyrazin-8-yloxy)phenyl)-3-(2-(pyridin-3-yloxy)-5-(trifluoromethyl)phenyl)urea] | < 0.1 µM | < 1 µM | 1 to 10 µM
3 | O=C(Nc1ccc(Oc2ccnc3[nH]c(=O)cnc23)cc1F)Nc1cc(C(F)(F)F)ccc1-n1cccn1 [AA-094, 1-(2-(1H-pyrazol-1-yl)-5-(trifluoromethyl)phenyl)-3-(2-fluoro-4-(3-oxo-3,4-dihydropyrido[3,2-b]pyrazin-8-yloxy)phenyl)urea] | < 0.1 µM | < 1 µM | 1 to 10 µM
4 | C=CCn1nc(C(C)(C)C)cc1NC(=O)Nc1ccc(Oc2ccnc3[nH]c(=O)cnc23)cc1F [AA-095, 5-[(4-amino-2-fluorophenyl-oxy)carbonylamino-5-(1-N-allyl-3-t-butyl-imidazolyl)]-pyridin-[2, 3]-3-pyrazin-2-one] | < 0.1 µM | < 1 µM | 1 to 10 µM
5 | CC(C)(C)c1cc(NC(=O)Nc2ccc(Oc3ccnc4[nH]c(=O)cnc34)cc2F)n(CC2CC2)n1 [AA-097, 1-(3-Tert-butyl-1-(cyclopropylmethyl)-1H-pyrazol-5-yl)-3-(2-fluoro-4-(3-oxo-3,4-dihydropyrido[3,2-b]pyrazin-8-yloxy)phenyl)urea] | < 0.1 µM | < 1 µM | 1 to 10 µM

Further lines, results first:

Row | IC50 (B-RAF) | IC50 (pERK) | GI50 (WM266.4 melanoma cells) | Compound
6 | 0.1 to 1 µM | < 1 µM | < 1 µM | Cc1ccc(-n2nc(C(C)(C)C)cc2NC(=O)Nc2ccc(Oc3ccnc4[nH]c(=O)cnc34)cc2F)cn1 [AA-084, 1-(3-tert-butyl-1-(6-methylpyridin-3-yl)-1H-pyrazol-5-yl)-3-(2-fluoro-4-(3-oxo-3,4-dihydropyrido[3,2-b]pyrazin-8-yloxy)phenyl)urea]
7 | < 0.1 µM | < 1 µM | < 1 µM | Cc1ccc(-n2nc(C(C)(C)C)cc2NC(=O)Nc2ccc(Oc3ccnc4[nH]c(=O)cnc34)c(F)c2)cc1 [AA-088, 1-(3-tert-butyl-1-p-tolyl-1H-pyrazol-5-yl)-3-(3-fluoro-4-(3-oxo-3,4-dihydropyrido[2,3-b]pyrazin-8-yloxy)phenyl)urea]
8 | 0.1 to 1 µM | < 1 µM | < 1 µM | CC(C)(C)c1cc(NC(=O)Nc2ccc(Oc3ccnc4ncc(=O)[nH]c34)cc2F)n(-c2ccccc2)n1 [AA-089, 1-(3-tert-butyl-1-phenyl-1H-pyrazol-5-yl)-3-(2-fluoro-4-(2-oxo-1,2-dihydropyrido[3,2-b]pyrazin-8-yloxy)phenyl)urea]
9 | 0.1 to 1 µM | < 1 µM | < 1 µM | CC(C)(C)c1cc(NC(=O)Nc2ccc(Oc3ccnc4[nH]c(=O)cnc34)cc2F)n(-c2ccc(S(C)(=O)=O)cc2)n1 [AA-090, 1-(3-tert-butyl-1-(4-(methylsulfonyl)phenyl)-1H-pyrazol-5-yl)-3-(2-fluoro-4-(3-oxo-3,4-dihydropyrido[3,2-b]pyrazin-8-yloxy)phenyl)urea]
10 | 0.1 to 1 µM | < 1 µM | < 1 µM | CC(C)(C)c1cc(NC(=O)Nc2ccc(Oc3ccnc4[nH]c(=O)c(=O)[nH]c34)cc2F)n(-c2ccccc2)n1 [AA-091, 1-(3-Tert-butyl-1-phenyl-1H-pyrazol-5-yl)-3-(4-(2,3-dioxo-1,2,3,4-tetrahydropyrido[3,2-b]pyrazin-8-yloxy)-2-fluorophenyl)urea]
11 | 0.1 to 1 µM | 1 to 10 µM | 1 to 10 µM | CC(C)(C)c1cc(NC(=O)Nc2ccc(Oc3ccnc4[nH]c(=O)c(=O)[nH]c34)cc2F)n(-c2ccc(S(C)(=O)=O)cc2)n1 [AA-092, 1-(3-tert-butyl-1-(4-(methylsulfonyl)phenyl)-1H-pyrazol-5-yl)-3-(4-(2,3-dioxo-1,2,3,4-tetrahydropyrido[3,2-b]pyrazin-8-yloxy)-2-fluorophenyl)urea]
12 | < 0.1 µM | < 1 µM | 1 to 10 µM | C#CCn1nc(C(C)(C)C)cc1NC(=O)Nc1ccc(Oc2ccnc3[nH]c(=O)cnc23)cc1F [AA-096]
13 | < 0.1 µM | 1 to 10 µM | 1 to 10 µM | COCn1nc(C(C)(C)C)cc1NC(=O)Nc1ccc(Oc2ccnc3[nH]c(=O)cnc23)cc1F [AA-098, 1-(3-Tert-butyl-1-(methoxymethyl)-1H-pyrazol-5-yl)-3-(2-fluoro-4-(3-oxo-3,4-dihydropyrido[3,2-b]pyrazin-8-yloxy)phenyl)urea]
